The values below come from US6168934A, “Oligosaccharide enzyme substrates and inhibitors: methods and compositions” (The Scripps Research Institute, priority 1998, dated 2001).

Data set [1] has as its target T1, fucosyl α1,3/1,4 transferase (FucT; EC 2.4.1.65), recombinant (Homo sapiens, UniProt P21217).
T1 construct: gift of Dr. J. B. Lowe, University of Michigan
T1 sequence (P21217 1-361): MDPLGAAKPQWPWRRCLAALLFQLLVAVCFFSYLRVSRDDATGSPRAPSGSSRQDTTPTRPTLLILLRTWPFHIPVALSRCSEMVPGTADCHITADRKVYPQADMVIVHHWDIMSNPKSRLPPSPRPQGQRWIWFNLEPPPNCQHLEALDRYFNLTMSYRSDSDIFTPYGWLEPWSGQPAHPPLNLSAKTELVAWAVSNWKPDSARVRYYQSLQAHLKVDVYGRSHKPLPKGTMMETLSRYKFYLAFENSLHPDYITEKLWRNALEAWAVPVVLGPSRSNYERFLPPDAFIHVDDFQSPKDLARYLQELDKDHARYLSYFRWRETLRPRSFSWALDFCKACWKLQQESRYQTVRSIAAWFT
The data set can be described thus: Fucosyltransferase inhibition studies (IC50). It is filed as biochemical. The note with it: 2 mM N-acetyllactosamine; for inhibitory effect: up to concentrations of 50 mg/mL. On the procedure:
For other studies, such as those using a recombinant fucosylα1,3/4transferase (EC 2.4.1.65) whose results are shown in Table 1a, a stock mixture containing 0.25 mM ^14 C-GDP-fucose (5000 cpm/μL), 6.25 mM ATP, 25 mM MnCl2 are 62.5 mM cacodylate buffer, pH 6.2, was admixed fresh on the day of use, and stored on ice. To that solution, Fuc T was added immediately before use, and the reaction was initiated by the combination of 16 μL of that mixture with 4 μL of 100 mM acceptor substrate. The resulting admixture was then incubated at 37° C. for 30-240 minutes, depending upon the acceptor substrate (reactant compound) under study.
In this equation, m=slope and b=y-intercept.
Percent inhibition=m([inhibitor])+b equation 2

In data set [2] the target is β-galactosidase (EC 3.2.1.23 from E. coli) (Escherichia coli, UniProt P00722). The data set can be described thus: Inhibition of β-galactosidase hydrolysis of p-nitrophenyl β-galactoside. It is filed as biochemical. As to conditions: p-nitrophenyl β-galactoside hydrolysed at the same rate with and without azasugar; concentration not given. The text has this: Not all of the monosaccharide acceptors of the present invention are suitable substrates for β-galactosidase. For example, when Compound 3 or 4 from Table 2 are used as a substrate, no product was obtained.
Chain of β-galactosidase (EC 3.2.1.23 from E. coli) (P00722 2-1024): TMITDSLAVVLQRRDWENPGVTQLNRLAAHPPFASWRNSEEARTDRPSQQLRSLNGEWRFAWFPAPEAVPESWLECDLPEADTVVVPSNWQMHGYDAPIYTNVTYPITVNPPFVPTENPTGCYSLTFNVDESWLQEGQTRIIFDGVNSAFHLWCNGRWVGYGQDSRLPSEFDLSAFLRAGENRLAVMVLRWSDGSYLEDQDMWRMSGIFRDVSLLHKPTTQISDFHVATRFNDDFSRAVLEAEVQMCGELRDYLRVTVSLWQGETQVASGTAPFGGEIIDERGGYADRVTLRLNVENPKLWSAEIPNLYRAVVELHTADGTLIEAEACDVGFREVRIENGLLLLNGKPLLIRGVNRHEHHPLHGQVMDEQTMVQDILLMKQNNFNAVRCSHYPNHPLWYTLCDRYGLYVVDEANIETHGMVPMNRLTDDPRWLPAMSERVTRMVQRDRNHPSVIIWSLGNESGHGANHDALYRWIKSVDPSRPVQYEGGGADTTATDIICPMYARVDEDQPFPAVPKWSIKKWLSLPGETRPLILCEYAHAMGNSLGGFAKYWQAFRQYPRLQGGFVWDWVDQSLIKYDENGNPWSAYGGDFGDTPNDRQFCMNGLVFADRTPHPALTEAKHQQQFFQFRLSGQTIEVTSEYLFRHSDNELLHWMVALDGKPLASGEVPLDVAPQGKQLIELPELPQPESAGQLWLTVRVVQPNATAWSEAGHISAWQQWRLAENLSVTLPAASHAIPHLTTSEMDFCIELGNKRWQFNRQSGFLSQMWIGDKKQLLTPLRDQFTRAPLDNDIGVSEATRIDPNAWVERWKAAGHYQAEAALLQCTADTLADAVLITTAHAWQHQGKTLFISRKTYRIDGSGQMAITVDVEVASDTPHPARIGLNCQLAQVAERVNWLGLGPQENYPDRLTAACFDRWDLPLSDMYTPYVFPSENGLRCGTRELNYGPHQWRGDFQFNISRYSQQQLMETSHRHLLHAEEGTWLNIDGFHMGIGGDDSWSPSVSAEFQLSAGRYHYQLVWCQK

Data set [3] addresses α-Glucosidase (Brewer's Yeast). The data set can be described thus: Glycosidase inhibition, α-glucosidase (BY). It is filed as biochemical. The note with it: p-nitrophenyl α-D-glucoside, PIPES-NaOAc buffer pH 6.5. The text has this: (§1) Materials: All of the buffers, enzymes, and substrates were purchased from Sigma and used as received. These included piperazine-N,N'-bis (2-ethanesulfonic acid) (PIPES), sodium acetate (NaOAc), ethylenediaminetetraacetic acid (EDTA), β-D-glucosidase (from sweet almond), p-nitrophenyl β-D-glucoside, p-nitrophenyl α-D-glucosidase, p-nitrophenyl α-D-glucoside, β-N-acetyl-D-glucosaminedase, p-nitrophenyl β-N-acetyl-D-glucosaminide, α-D-mannosidase and p-nitrophenyl α-D-mannoside.
(§2) (b) PIPES-NaOAc buffer (0.01 M PIPES, 0.2 M NaOAc and 0.01 mM EDTA, pH 6.5). This buffer was prepared according to the literature procedure [Dale et al., Biochemistry, 24:3530 (1985)].
(d) α-D-Glucosidase: 1.5 mg of solid protein (70 units/mg) were dissolved in 1 mL PIPES-NaOAc buffer solution and used for assays without further dilution.
(§3) (g) Substrate solutions: all substrates were dissolved in the corresponding buffer solution for enzymatic assay.
(§4) For each inhibitor, five inhibitor concentrations, ranging from zero to three times Ki, were generally used to determine the Ki value. […] The amount of enzyme added in each assay was adjusted so that less than 10 percent of the substrate, with its lowest substrate concentration, would be consumed within 45 seconds. Since all of the substrates have p-nitrophenol as leaving group, the assays were monitored at 400 nanometers (nm), where the molecular extinction coefficient, ε, was calibrated to be 3204.5 M^-1 cm^-1 at pH 6.5. The following illustrates the detailed procedure.
To a 1 mL disposable cuvette were added 950 microliters (μL) of the NaOAc-PIPES buffer solution, 20 μL of the inhibitor solution and 20 μL of the p-nitrophenyl β-D-glucoside solution (100 mM in PIPES-NaOAc buffer, pH 6.5). The solution was well mixed and 20 μL of the β-D-glucosidase solution were injected into the cuvette to start the reaction. The reaction was monitored at 400 nm on a Beckman DU-70 photospectrometer for 45 seconds and the initial hydrolysis rate was calculated. The same procedure was repeated with five other substrate concentrations. […]

Data set [4] concerns the target β-Glucosidase (Sweet Almond). Nature of the data set: Glycosidase inhibition, β-glucosidase (SA). It is filed as biochemical. As to conditions: p-nitrophenyl β-D-glucoside, PIPES-NaOAc buffer pH 6.5.
Text: as §1, §2
(c) β-D-Glucosidase: The stock enzyme solution was prepared by dissolving 15 mg of solid protein (4 units/mg) in 1 mL PIPES-NaOAc buffer solution. This stock enzyme solution was diluted 5-fold for the enzymatic assay.
as §3, §4
To a 1 mL disposable cuvette were added 950 microliters (μL) of the NaOAc-PIPES buffer solution, 20 μL of the inhibitor solution and 20 μL of the p-nitrophenyl β-D-glucoside solution (100 mM in PIPES-NaOAc buffer, pH 6.5). The solution was well mixed and 20 μL of the β-D-glucosidase solution were injected into the cuvette to start the reaction. The reaction was monitored at 400 nm on a Beckman DU-70 photospectrometer for 45 seconds and the initial hydrolysis rate was calculated. […]

The target of data set [5] is E. coli CMP-sialic acid synthetase (CMP-NeuAc synthetase, EC 2.7.7.43), native enzyme (Escherichia coli O18:K1:H7, UniProt P13266). The data set can be described thus: Kinetic studies of native CMP-NeuAc synthetase. As to conditions: pH 9.0, 37° C.
Chain of E. coli CMP-sialic acid synthetase (CMP-NeuAc synthetase, EC 2.7.7.43), native enzyme (P13266 whole entry): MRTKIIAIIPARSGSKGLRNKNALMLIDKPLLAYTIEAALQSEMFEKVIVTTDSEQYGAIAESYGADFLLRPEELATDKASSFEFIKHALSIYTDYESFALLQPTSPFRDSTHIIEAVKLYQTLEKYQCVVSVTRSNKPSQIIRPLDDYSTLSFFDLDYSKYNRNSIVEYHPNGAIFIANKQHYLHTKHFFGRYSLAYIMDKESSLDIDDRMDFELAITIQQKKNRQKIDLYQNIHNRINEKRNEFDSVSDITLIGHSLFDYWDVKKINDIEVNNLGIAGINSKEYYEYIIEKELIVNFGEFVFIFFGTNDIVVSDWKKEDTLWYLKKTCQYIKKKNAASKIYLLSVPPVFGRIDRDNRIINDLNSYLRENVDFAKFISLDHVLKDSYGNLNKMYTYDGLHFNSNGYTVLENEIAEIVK
Protocol: (§9) The activity of the native or the modified CMP-NeuAc synthetase was assayed using a thiobarbituric acid method described by Vann et al., J. Biol. Chem., 262:17556 (1987). […] After the mixture was incubated at 37° C. for 30 minutes, 50 mL of 1.6 M NaBH4 was added to destroy excess NeuAc, and the mixture was heated at room temperature for an additional 15 minutes. The mixture was then put in the ice bath and 50 mL of H3 PO4 were added to destroy NaBH4.
(§10) The resulting mixture was kept at zero degrees C for five minutes then incubated at 37° C. for 10 minutes to cleave the phosphoester bond of the formed CMP-NeuAc. The free NeuAc was oxidized with 50 mL of 0.2 M NaIO4 at room temperature for 10 minutes, and 400 mL of 4 percent NaAsO2 in 0.5 N HCl were added. […] After the solution was cooled, 1 mL of the solution was taken out and mixed with 1 mL of cyclohexanone. That mixture was shaken and centrifuged, and the upper layer was taken for measurement at 549 nm (e=4.11 mM^-1 cm^-1).
(§11) where A is [CTP], B is [NeuAc], Ka and Kb are the Michaelis constants for CTP and NeuAc, respectively, and Kia is the dissociation constant (or inhibition constant) for CTP.
The subject of data set [6] is Nc1ccn([C@@H]2O[C@H](COP(=O)(O)OP(=O)(O)OP(=O)(O)O)[C@@H](O)[C@H]2O)c(=O)n1. Nature of the data set: Kinetic studies of modified (tagged) CMP-NeuAc synthetase. It is filed as biochemical, E. coli. As to conditions: other: pH 9.0, 37° C. On the procedure:
(§5) The construction of plasmid CMPSIL-1, which contains the modified CMP-NeuAc synthetase gene (Example 2), was accomplished by the method of Ichikawa et al., J. Am. Chem. Soc., 113:4698 (1991). The CMP-NeuAc synthetase gene was fused with the decapeptide tag sequence Tyr-Pre-[…](SEQ ID NO:3) at the C-terminus, cloned into a lambda ZAP™ vector at EcoRI and XbaI sites and overexpressed in E. coli Sure strain.
(§6) The activity of the native or the modified CMP-NeuAc synthetase was assayed using a thiobarbituric acid method described by Vann et al., J. Biol. Chem., 262:17556 (1987). Briefly, the enzyme was added to a […] buffer containing 5.5 mM CTP, 2.8 mM N-acetylneuraminic acid, 0.2 M Tris, 20 mM MgCl2 and 0.2 mM DTT, pH 9.0, to form a mixture. After the mixture was incubated at 37° C. for 30 minutes, 50 mL of 1.6 M NaBH4 was added to destroy excess NeuAc, and the mixture was heated at room temperature for an additional 15 minutes. The mixture was then put in the ice bath and 50 mL of H3 PO4 were added to destroy NaBH4.
(§7) The resulting mixture was kept at zero degrees C for five minutes then incubated at 37° C. for 10 minutes to cleave the phosphoester bond of the formed CMP-NeuAc. The free NeuAc was oxidized with 50 mL of 0.2 M NaIO4 at room temperature for 10 minutes, and 400 mL of 4 percent NaAsO2 in 0.5 N HCl were added. The solution mixture was the transferred to a test tube containing 1 mL of 0.6 percent thiobarbituric acid in 0.5 M Na2 SO4, and heated in boiled water for 15 minutes. After the solution was cooled, 1 mL of the solution was taken out and mixed with 1 mL of cyclohexanone. That mixture was shaken and centrifuged, and the upper layer was taken for measurement at 549 nm (e=4.11 mM^-1 cm^-1).
(§8) Initial velocities were measured at various concentrations of CTP (1.25-5 mM) and NeuAc (2-8 mM) for kinetic studies. The data were fitted into the sequential bi-bi substrate rate equation 3, shown below, to derive the Michaelis constants and maximum velocity (V) using a Sigma plot program from Sigma Co. [formula] […]

Data set [7] relates to CC(=O)N[C@H]1[C@H]([C@H](O)[C@H](O)CO)OC(O)(C(=O)O)C[C@@H]1O. The description is as above. It is filed as biochemical, E. coli. The note with it: other: pH 9.0, 37° C. On the procedure: as §5, §6, §7, §8
The test system of data set [8] is Nc1ccn([C@@H]2O[C@H](COP(=O)(O)OP(=O)(O)OP(=O)(O)O)[C@@H](O)[C@H]2O)c(=O)n1. The data set can be described thus: purified protein, by the assay type. As to conditions: other: pH 9.0, 37° C.
Protocol: as §9, §10, §11

pIC50, pKi: −log10 of the molar value.

For `C=CCO[C@@H]1O[C@H](CO)[C@@H](O[C@@H]2O[C@H](CO)[C@H](O)[C@H](O)[C@H]2O)C[C@H]1NC(C)=O` [Compound 2i, Allyl β-D-galactopyranosyl-(1,4)-2-acetamido-2,3-dideoxy-β-D-glucopyranoside], the inhibitory effect entry in data set [1] is “did not exhibit any inhibitory effect”.
`OC[C@H]1NC[C@H](O)[C@@H](O)[C@@H]1O` [Compound 3]: the “inhibition of β-galactosidase” value in data set [2] is given as “Neither azasugar was an inhibitor”.
As for `C[C@H]1NC[C@H](O)[C@@H](O)[C@@H]1O` [Compound 4], in data set [2], the “inhibition of β-galactosidase” value is “Neither azasugar was an inhibitor”.
Turning to `OC[C@H]1O[C@@H](O[C@H]2[C@H](O)C=CO[C@@H]2CO)[C@H](O)[C@@H](O)[C@H]1O` [Compound 8, P-D-Galactopyranosyl-(1,4)-D-glucal], in data set [1], the inhibitory effect result is on record as “did not exhibit any inhibitory effect”.
For `OC[C@H]1NC[C@H](O)[C@@H](O)[C@@H]1O[C@@H]1O[C@H](CO)[C@H](O)[C@H](O)[C@H]1O` [Compound 10a, 6-D-Galactopyranosyl-(1,4) -deoxynojirimycin], the pIC50 was roughly 1.40 in data set [1] (Example 8) and 1.40 in data set [1] (Table 1a, 14C-GDP-fucose, pH 6.2, 37° C., IC50 extrapolated from linear fit).
As to `C[C@H]1NC[C@H](O)[C@@H](O)[C@@H]1O` [Compound 103c, (2R)-methyl-(3R,4R,5S)-trihydroxypiperidine], the pKi in data set [3] was 2.81; in data set [4], 3.11.
Take `C[C@@H]1[C@@H](O)[C@H](O)[C@@H](O)CN1C` [Compound 117, (1,2R)-dimethyl-(3R,4R,5S)-trihydroxypiperidine]: the pKi was 2.75 in data set [3] and 3.85 in data set [4].
`C[C@@H]1[C@@H](O)[C@H](O)[C@@H](O)C[N@+]1(C)[O-]` [Compound 118, (1,2R)-dimethyl-(3R,4R,5S)-trihydroxypiperidine oxide]: the pKi in data set [3] is 2.16; in data set [4], 2.83.
Turning to `CC(=O)N[C@H]1[C@H]([C@H](O)[C@H](O)CO)OC(O)(C(=O)O)C[C@@H]1O` (stereo partly drawn) [NeuAc, N-acetylneuraminic acid], the Km in data set [5] (read-out: Km for NeuAc) is 4 mM. In addition, the kcat in data set [5] (substrates NeuAc and CTP) is 1.8 s⁻¹.
For the compound “E. coli CMP-sialic acid synthetase (CMP-NeuAc synthetase, EC 2.7.7.43), modified (tagged) enzyme with C-terminal decapeptide tag, SEQ ID NO:3 (Escherichia coli RS218)”, the Km in data set [6] came to 1.99 mM. Besides, in data set [7], the Km was found to be 4.8 mM and the kcat amounted to 1.9 s⁻¹.
As for “E. coli CMP-sialic acid synthetase (CMP-NeuAc synthetase, EC 2.7.7.43), native enzyme (Escherichia coli RS218)”, in data set [8], the Km came to 0.31 mM.

For orientation: pIC50 means the IC50 on a negative log10 scale, so that one unit is a factor of ten. The term pKi denotes the Ki on a negative log10 scale, so that one unit is a factor of ten. The Km is the substrate concentration at which the rate is half of its maximum. In general, kcat refers to the number of substrate molecules converted per active site and unit of time at saturation.
